Data reported in the supplement of paper PMC10307832.

Columns and labels:
Assay in all cases: relative viability (nuclei count vs DMSO), 5 days (fraction); higher = more cells survive
Idelalisib + Navitoclax = compound: CC[C@H](Nc1ncnc2[nH]cnc12)c1nc2cccc(F)c2c(=O)n1-c1ccccc1 [Idelalisib] + CC1(C)CCC(c2ccc(Cl)cc2)=C(CN2CCN(c3ccc(C(=O)NS(=O)(=O)c4ccc(N[C@H](CCN5CCOCC5)CSc5ccccc5)c(S(=O)(=O)C(F)(F)F)c4)cc3)CC2)C1 [Navitoclax] (partner 0.5 µM)
Outline: (§1)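 After 5 days of treatment, lung cancer cells in 1536-well plates were fixed and stained in a single step (final 0.05% Triton X-100, 1% formaldehyde, 1 ug/ml Hoechst) and their nuclei counted on 4× images. Treatment had been applied by pin tool the day after seeding as one drug alone or as a fixed anchor-drug dose with five library-drug doses (not always all listed) in √10 steps. Relative viability is the nuclei count of treated wells divided by that of vehicle wells, and values are medians of duplicate plates.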

Idelalisib + Bortezomib = compound: CC[C@H](Nc1ncnc2[nH]cnc12)c1nc2cccc(F)c2c(=O)n1-c1ccccc1 [Idelalisib] + CC(C)C[C@H](NC(=O)[C@H](Cc1ccccc1)NC(=O)c1cnccn1)B(O)O [Bortezomib] (partner 0.002 µM)
Outline: as §1

Idelalisib + Linsitinib = compound: CC[C@H](Nc1ncnc2[nH]cnc12)c1nc2cccc(F)c2c(=O)n1-c1ccccc1 [Idelalisib] + C[C@]1(O)C[C@@H](c2nc(-c3ccc4ccc(-c5ccccc5)nc4c3)c3c(N)nccn32)C1 [Linsitinib] (partner 1 µM)
Outline: as §1

Pemetrexed + Crizotinib = compound: Nc1nc2[nH]cc(CCc3ccc(C(=O)N[C@@H](CCC(=O)O)C(=O)O)cc3)c2c(=O)[nH]1 [Pemetrexed] + C[C@@H](Oc1cc(-c2cnn(C3CCNCC3)c2)cnc1N)c1c(Cl)ccc(F)c1Cl [Crizotinib] (partner 1 µM)
Outline: as §1

| Cell Line | relative viability (Idelalisib + Navitoclax; first compound 0.04 µM) | relative viability (Idelalisib + Navitoclax; first compound 0.1265 µM) | relative viability (Idelalisib + Navitoclax; first compound 0.4 µM) | relative viability (Idelalisib + Navitoclax; first compound 1.265 µM) | relative viability (Idelalisib + Navitoclax; first compound 4 µM) | relative viability (Idelalisib + Bortezomib; first compound 0.04 µM) | relative viability (Idelalisib + Bortezomib; first compound 0.1265 µM) | relative viability (Idelalisib + Bortezomib; first compound 0.4 µM) | relative viability (Idelalisib + Bortezomib; first compound 1.265 µM) | relative viability (Idelalisib + Bortezomib; first compound 4 µM) | relative viability (Idelalisib + Linsitinib; first compound 0.04 µM) | relative viability (Idelalisib + Linsitinib; first compound 0.1265 µM) | relative viability (Idelalisib + Linsitinib; first compound 0.4 µM) | relative viability (Idelalisib + Linsitinib; first compound 1.265 µM) | relative viability (Idelalisib + Linsitinib; first compound 4 µM) | relative viability (Pemetrexed + Crizotinib; first compound 0.002 µM) | relative viability (Pemetrexed + Crizotinib; first compound 0.006325 µM) | relative viability (Pemetrexed + Crizotinib; first compound 0.02 µM) | relative viability (Pemetrexed + Crizotinib; first compound 0.06325 µM) | relative viability (Pemetrexed + Crizotinib; first compound 0.2 µM) |
| --- | --- | --- | --- | --- | --- | --- | --- | --- | --- | --- | --- | --- | --- | --- | --- | --- | --- | --- | --- | --- |
| NCI-H2085 | 1.23 | 1.16 | 0.951 | 0.938 | 0.764 | 0.916 | 1.08 | 0.983 | 1.06 | 0.848 | 0.912 | 1.03 | 0.8 | 0.579 | 0.437 | 0.96 | 0.869 | 0.752 | 0.896 | 0.924 |
| NCI-H2087 | 0.885 | 0.938 | 0.98 | 1.03 | 0.823 | 0.765 | 1.01 | 0.787 | 1.07 | 0.671 | 0.937 | 1.04 | 1.09 | 1.06 | 0.728 | 0.945 | 0.818 | 0.912 | 0.85 | 0.786 |
| NCI-H2126 | 0.896 | 0.861 | 0.813 | 0.805 | 0.789 | 1.14 | 1.15 | 1.13 | 1.14 | 1.21 | 0.71 | 0.715 | 0.685 | 0.698 | 0.625 | 0.967 | 0.96 | 1.02 | 1.03 | 0.965 |
| NCI-H2228 | 1.04 | 0.569 | 0.742 | 1.03 | 0.666 | 1.07 | 0.983 | 1.09 | 1.05 | 1.03 | 0.66 | 0.68 | 0.586 | 0.768 | 0.511 | 0.424 | 0.514 | 0.409 | 0.358 | 0.31 |
| NCI-H2347 | 0.89 | 0.667 | 0.737 | 0.767 | 0.618 | 0.971 | 0.982 | 0.971 | 0.774 | 0.799 | 0.931 | 0.884 | 0.857 | 1.14 | 0.514 | 0.689 | 0.616 | 0.694 | 0.577 | 0.477 |
| NCI-H2405 | 1.01 | 0.759 | 0.716 | 0.766 | 0.622 | 1.05 | 0.98 | 0.937 | 0.983 | 0.962 | 1.08 | 0.851 | 0.733 | 0.736 | 0.69 | 0.868 | 0.785 | 0.869 | 0.824 | 0.825 |
| NCI-H3122 | 1.07 | 1.04 | 1.02 | 0.995 | 0.961 | 1.03 | 1.04 | 1.09 | 1.09 | 1.04 | 0.953 | 0.952 | 1.03 | 0.935 | 0.894 | 0.275 | 0.261 | 0.261 | 0.244 | 0.233 |
| PC-3 [JPC-3] | 0.912 | 0.892 | 0.795 | 0.668 | 0.679 | 0.885 | 0.837 | 0.835 | 0.806 | 0.809 | 0.972 | 0.976 | 0.986 | 0.95 | 0.893 | 0.935 | 0.985 | 0.926 | 1.11 | 0.935 |
| PC-14 | 0.987 | 1.1 | 0.953 | 1.14 | 1.02 | 0.913 | 0.996 | 0.947 | 0.982 | 0.814 | 0.971 | 0.978 | 0.929 | 0.97 | 0.901 | 0.86 | 0.888 | 0.838 | 0.709 | 0.207 |
| RERF-LC-KJ | 0.922 | 0.951 | 0.884 | 0.792 | 0.638 | 1.2 | 1.08 | 0.95 | 1.13 | 0.878 | 0.973 | 0.863 | 0.869 | 0.789 | 0.908 | 0.89 | 0.852 | 0.878 | 0.832 | 0.805 |
| SK-LU-1 | 0.871 | 1.05 | 0.988 | 0.683 | 0.799 | 1.06 | 1.14 | 0.961 | 0.95 | 1.04 | 1.17 | 1.15 | 0.916 | 1.02 | 0.973 | 0.771 | 0.883 | 0.858 | 0.953 | 0.731 |
| SW 1573 | 0.859 | 0.837 | 0.994 | 0.926 | 0.791 | 1.06 | 0.972 | 1.02 | 0.928 | 0.865 | 0.781 | 0.792 | 0.728 | 0.625 | 0.558 | 0.658 | 0.79 | 0.919 | 0.888 | 0.791 |
